Measured values from publication PMC6386944, “Design and Synthesis of A PD-1 Binding Peptide and Evaluation of Its Anti-Tumor Activity” (International Journal of Molecular Sciences, 2019).
Bridge positions count the residues as written; N and C are the ends. Peptide text beside a SMILES is read from it. * marks the point of attachment. FITC = O=C1OC2(c3ccc(O)cc3Oc3cc(O)ccc32)c2ccc(NC(=S)*)cc21; Ahx = NCCCCCC(=O)O

Test system: TE-13 cells co-cultured with T cells
Test: Lactate dehydrogenase (LDH) release assay, T cell cytotoxicity
Format: cell-based, human
Settings: TE-13 and T cells at 16:1; FITC-YT-16 1, 2, 4, 8 and 16 µM; overnight, 37 °C; A490; triplicate wells
Description: The experiment in Figure 10 mainly evaluated the activation status of CD4^+ T cells by detection of IL-2 and INF-γ levels in the culture supernatant. The test in Figure 11 mainly evaluated the enhanced cytotoxicity by CD8^+ T cells by detection of lactate dehydrogenase (LDH) release in the culture supernatant. Activated CD8 T cells can recognize tumor cells and kill tumor cells by means of degranulation and Fas/FasL recognition. After the tumor cells were damaged, a cytoplasmic enzyme with name lactate dehydrogenase (LDH) is released from damaged cells into the supernatant and by measuring the levels of LDH, we can evaluate the cytotoxic effect of CD8 T cells. […]
Effect of FITC-YT-16 peptide on T cell cytotoxicity was detected by measuring the release of a cytoplasmic enzyme, lactate dehydrogenase (LDH), from damaged cells into the supernatant by using a colorimetric assay according to cytotoxicity detection kit (Cayman Chemical, Ann Arbor, MI, USA). […] The supernatant was transferred to a new 96-well assay plate and the LDH reaction solution was added to each well and incubated for 30 min at 37 °C before the absorbance was read at 490 nm. […] Triplicate wells were averaged and the percentage of specific lysis was calculated by the following equation: % Cytotoxicity=[Experimental value A490−Spontaneous release A490/Maximum release A490−Spontaneous release A490]∗100

CC[C@H](C)[C@@H]1NC(=O)[C@H](CCSC)NC(=O)[C@@H](NC(=O)[C@H](CCCNC(=N)N)NC(=O)[C@H](Cc2ccc(O)cc2)NC(=O)CCCCCNC(=S)Nc2ccc3c(c2)C(=O)OC32c3ccc(O)cc3Oc3cc(O)ccc32)CSSC[C@@H](C(=O)N[C@H](C(=O)N[C@H](C(=O)O)[C@@H](C)O)[C@@H](C)CC)NC(=O)[C@H](CCCCN)NC(=O)[C@H](Cc2ccc(O)cc2)NC(=O)[C@H](CC(=O)O)NC(=O)[C@H](C)NC(=O)CNC(=O)CNC(=O)[C@H](Cc2ccc(O)cc2)NC(=O)[C@H](CO)NC1=O [FITC-YT-16] ({FITC-Ahx}-YRCMISYGGADYKCIT-OH; disulfide 3-14)
T cell cytotoxicity, concentration dependence: dose-dependently increased
